Laboratory results as given in PubChem BioAssay (NCI).
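Cultured in 96-well plates, cells were exposed to test compound for 48 hours across five concentrations. At the TGI there is no net growth.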

Assays:
Assay in all cases: inhibition of tumour cell growth, NCI panel, 48 h
K-562 leukemia = system: K-562 leukemia
MDA-N = system: MDA-N
A549 NSCLC = system: A549 NSCLC
786-0 renal = system: 786-0 renal
HOP-92 NSCLC = system: HOP-92 NSCLC
MDA-MB-435 = system: MDA-MB-435
CAKI-1 renal = system: CAKI-1 renal
SK-MEL-28 melanoma = system: SK-MEL-28 melanoma
NCI-H226 lung = system: NCI-H226 lung
EKVX NSCLC = system: EKVX NSCLC
ACHN renal = system: ACHN renal

| Structure (SMILES) | TGI (K-562 leukemia) [µM] | TGI (MDA-N) [µM] | TGI (A549 NSCLC) [µM] | TGI (786-0 renal) [µM] | TGI (HOP-92 NSCLC) [µM] | TGI (MDA-MB-435) [µM] | TGI (CAKI-1 renal) [µM] | TGI (SK-MEL-28 melanoma) [µM] | TGI (NCI-H226 lung) [µM] | TGI (EKVX NSCLC) [µM] | TGI (ACHN renal) [µM] |
| --- | --- | --- | --- | --- | --- | --- | --- | --- | --- | --- | --- |
| CCOC(=N)n1c(=O)n(C2=NCCN2)c2ccccc21 | > 100 | > 100 | > 100 | > 100 | > 100 | > 100 | > 100 | > 100 | > 100 | > 100 | > 100 |
| C=CC[C@]12C[C@@H](C(=O)OC)N(C(=O)OC)[C@H]1N(S(=O)(=O)c1ccccc1)c1ccccc12 | > 100 | > 100 | > 100 | > 100 | > 100 | > 100 | > 100 | > 100 | > 100 | > 100 | > 100 |
| COC(=O)c1c2c(cc3c1CC1(C3)Cc3cc4c(c(C(=O)OC)c3C1)CCCC4)CCCC2 | > 100 | > 100 | > 100 | > 100 | > 100 | > 100 | – | – | > 100 | > 100 | > 100 |
| Nc1c(-c2cccc3ccccc23)c2ccc([N+](=O)[O-])cc2c(=O)n1-c1nc2ccccc2s1 | > 100 | > 31.6 | > 53.4 | > 36.2 | > 55.5 | > 100 | > 31.6 | > 100 | 16.3 | 17.4 | > 100 |
| c1ccc2sc(SCSc3nc4ccccc4s3)nc2c1 | > 100 | > 100 | > 100 | > 100 | > 100 | > 100 | > 100 | > 100 | > 100 | > 100 | > 100 |
| Clc1ccc(-c2nn3c(-c4ccncc4)nnc3s2)cc1 | > 100 | > 100 | > 100 | 61.9 | > 100 | > 100 | > 100 | – | > 100 | > 100 | > 100 |
| Oc1ccccc1/C=N/c1nc2cc3sc(/N=C/c4ccccc4O)nc3cc2s1 | > 100 | > 100 | > 100 | > 100 | > 100 | > 100 | > 100 | > 100 | 98.5 | > 100 | > 100 |
| CN(C)c1nc(=NCc2ccccc2)ss1 | > 10 | > 10 | > 10 | > 10 | > 10 | > 10 | > 10 | > 10 | > 10 | > 10 | > 10 |
| CC(C)/C(Cl)=N\OC(=O)Nc1ccc(C#N)cc1 | 4.82 | 17.3 | 39.9 | 11.8 | 2.98 | 20.8 | 10.3 | 25 | 27.2 | 7.31 | 19 |
| COc1ccc2cc3c4cc5c(cc4cc[n+]3cc2c1OC)OCO5 | > 100 | 28.5 | > 100 | > 100 | > 90.4 | 22.9 | > 100 | 19.4 | > 100 | > 100 | > 100 |
| C(=N\NC1=NCCCN1)/c1ccc2ccccc2c1 | 12.6 | 22.5 | 22.4 | 24.2 | 25.1 | 18.7 | – | 31.9 | 27.1 | 32.8 | 22.2 |
| CC1(C)N=C(C(N)=O)c2ncn(CCCO)c2N1 | > 100 | > 100 | > 100 | > 100 | > 100 | > 100 | > 100 | > 100 | > 100 | > 100 | > 100 |
| O=c1c2ccccc2nc2[nH][nH]c(=S)n12 | > 100 | > 100 | > 100 | > 100 | > 100 | > 100 | > 100 | > 100 | > 100 | > 100 | > 100 |
| CC1CC[C@@]2(OC1)OC1C[C@H]3[C@@H]4CC[C@H]5CC(OC6OC(CO)C(OC7OC(CO)C(O)C(O)C7OC7OC(CO)C(O)C(O)C7O)C(O)C6O)CCC5(C)[C@H]4CCC3(C)C1[C@@H]2C (stereo not given in full) | 9.01 | 9.31 | 7.93 | 5.44 | 11.8 | 9.7 | 10.6 | 8.32 | 3.37 | 2.21 | 6.06 |
| CN(C)CCCN1C(=S)N(CCCN(C)C)c2c3cc(O)ccc3nc3c([N+](=O)[O-])ccc1c23 | > 33 | 34.9 | 9.73 | 8.55 | 16.1 | 15.3 | 15 | 10.8 | 13.7 | 16.2 | 11 |
| O=P(c1ccccc1)(c1ccccc1)N1O[C@@H](c2ccccc2)C=C[C@H]1c1ccccc1 | 80.1 | 12.7 | 24 | 23.3 | 25.6 | 18.7 | 22.4 | 38.3 | 29.4 | 24.1 | 21.9 |
| O=c1c2cc3c(cc2[nH]c2ncccc12)OCO3 | > 10 | > 10 | > 10 | > 10 | > 10 | > 10 | > 10 | > 10 | > 10 | > 10 | > 10 |
| COc1cc(C2CC(C)(Nc3ccccc3)Oc3cc4c(cc32)OCO4)cc(OC)c1OC (stereo not given) | > 100 | 0.183 | > 100 | > 78.4 | > 100 | 0.0688 | > 71.8 | > 100 | 7.12 | > 100 | > 90.7 |
| O=c1cc(N=P(c2ccccc2)(c2ccccc2)c2ccccc2)n(-c2ccccc2)c(=O)n1-c1ccccc1 | 23.9 | 43.7 | 24.6 | 25.2 | 47.5 | 57.2 | > 100 | > 100 | 22.2 | 49.8 | 45.4 |

| Structure (SMILES) | TGI (K-562 leukemia) [µM] | TGI (MDA-N) [µM] | TGI (A549 NSCLC) [µM] | TGI (786-0 renal) [µM] | TGI (HOP-92 NSCLC) [µM] | TGI (MDA-MB-435) [µM] | TGI (CAKI-1 renal) [µM] | TGI (SK-MEL-28 melanoma) [µM] | TGI (NCI-H226 lung) [µM] | TGI (EKVX NSCLC) [µM] | TGI (ACHN renal) [µM] |
| --- | --- | --- | --- | --- | --- | --- | --- | --- | --- | --- | --- |
| C/C(CC1C2CCCC1C2)=N\NC(N)=O (stereo not given) | – | > 100 | > 100 | > 100 | > 100 | > 100 | > 100 | > 100 | > 100 | > 100 | > 100 |
| CCCNC(=O)CCC(C)[C@H]1CCC2C3C(C[C@H](OC(C)=O)[C@@]21C)[C@@]1(C)CCC2(C[C@H]1C[C@H]3OC(C)=O)OOC1(CCC(C)CC1)OO2 (stereo not given in full) | > 100 | 28.6 | 5.26 | 33.4 | 1.98 | 39.5 | 5.14 | > 100 | > 100 | 30.6 | 4.08 |
| O=C1C[C@H](Sc2ccccc2)C2(OCCO2)[C@@H](Sc2ccccc2)C1 | 0.673 | 6.83 | 28 | > 30.2 | 5.74 | 7.97 | 12.8 | 10.4 | 6.03 | 17.1 | 5.62 |
| COC(=O)[C@]12CC[C@H]3CN(C(=O)OCc4ccccc4)[C@H]([C@H]31)[C@H](c1ccco1)N2S(=O)(=O)c1ccc(C)cc1 | > 100 | 50.4 | > 100 | 37.6 | 56.1 | 67.3 | 89.4 | > 100 | 58.7 | > 100 | > 100 |
| COc1cc(NS(C)(=O)=O)ccc1N1Cc2cnc3ccc4[nH]c(C)cc1c4c23 | > 100 | 47.7 | > 100 | 36.5 | > 100 | 50.1 | 74.5 | > 100 | > 100 | > 100 | > 100 |
| CSc1c(C#N)c(N)n2c1C(=O)N(c1ccccc1)C2=S | > 100 | > 100 | > 100 | > 100 | > 100 | > 100 | > 100 | > 100 | > 100 | > 100 | > 100 |
| N#CCCN(CCC#N)c1ccc(/C=C2\N=C(c3ccccc3)N(c3ccc(Cl)cc3)C2=O)cc1 | > 100 | > 100 | > 100 | > 100 | > 100 | > 100 | – | > 100 | > 100 | > 100 | > 100 |
| CC(C)(C)NC(=O)/C(=C\Sc1ccccc1)c1ccc2c(c1)OCO2 | > 100 | 59.8 | > 100 | > 100 | 55.1 | 47.7 | > 100 | > 100 | – | > 100 | > 100 |
| CCN(CCO)CC1COc2ccccc2O1 (stereo not given) | > 100 | > 100 | > 100 | > 100 | > 100 | > 100 | > 100 | > 100 | > 100 | > 100 | > 100 |
| CCN(C(=S)N[C@@H](Cc1ccccc1)C(=O)N[C@@H](CC(C)C)C(=O)OC)c1ccccc1 | > 100 | > 100 | > 100 | > 100 | > 100 | > 100 | > 100 | > 100 | > 100 | > 100 | > 100 |
| CO[C@]12CC(=O)C3(C(C[C@H]4CC5CC=C6C[C@@H](OC(C)=O)CC[C@]6(OC(C)=O)C5C[C@@]43C)C1)C1C[C@H]3[C@@H]4CC=C5C[C@@H](OC(C)=O)CC[C@]5(OC(C)=O)[C@H]4CC[C@]3(C)C12 (stereo not given in full) | > 100 | 30.6 | > 100 | > 100 | > 100 | > 100 | 34.3 | > 100 | – | 54.9 | > 100 |
| NNC(=O)c1ccc[n+](CCc2ccccc2)c1 | > 100 | > 100 | > 100 | > 100 | > 100 | > 100 | > 100 | > 100 | > 100 | > 100 | > 100 |
| CC(=O)N/N=C1\NC(=O)C[C@H]2[C@@H]3CC=C4C[C@@H](OC(C)=O)CC[C@]4(C)[C@H]3CC[C@]12C | > 100 | > 100 | > 100 | 43.1 | 31.9 | > 100 | > 100 | 33 | 54.6 | > 100 | 52.7 |
| C=C[C@@H]1C(CO)=CCC2[C@H]1CCC1C(C)(C)C(=O)CC[C@]21C (stereo not given in full) | > 100 | > 100 | > 100 | > 100 | > 100 | > 100 | > 100 | > 100 | > 100 | > 100 | > 100 |
| COc1ccc(C#CC(=O)O)c(OC)c1 | > 100 | > 100 | > 100 | > 100 | > 100 | > 100 | > 100 | > 100 | > 100 | > 100 | > 100 |
| Cc1cc2[nH]c3[nH]c(=O)[nH]c(=O)c3c2cc1C | – | > 100 | > 100 | > 100 | > 100 | > 100 | > 100 | – | > 100 | > 100 | > 100 |
| C=CCO/N=C/c1cc(NC(=S)c2ccoc2C)ccc1Cl | – | 32.2 | > 100 | > 100 | 42.3 | 54.4 | 23.6 | > 100 | 41.3 | 29.2 | 19.4 |
| COc1ccc(C(OCC2OC(n3cc(C)c(=O)[nH]c3=O)CC2n2cc(Cn3cc(F)c(=O)[nH]c3=O)nn2)(c2ccccc2)c2ccccc2)cc1 (stereo not given) | – | 3.53 | > 100 | 21.7 | 19.5 | 3.94 | 25 | 24.9 | 36.7 | 23.3 | 27.2 |
| COc1cc(C2SCC(=O)N2c2ccc(NC(=O)c3ccc(N4C(=O)CSC4c4cc(OC)c(OC)c(OC)c4)cc3)cc2)cc(OC)c1OC (stereo not given) | > 100 | 64 | > 100 | > 100 | 79.1 | 61.4 | > 100 | > 100 | – | > 100 | > 100 |
